Numbers after ± are expanded uncertainties.
Settings: Crystal; visual observation

Compound: CC=CC(=O)O [2-butenoic acid]
- Normal melting temperature: 71.7 ± 1.1 °C
